{"source": "patent US20230382871A1", "about": "“CSF1R KINASE INHIBITOR AND USE THEREOF” (SHANGHAI INSTITUTE OF MATERIA MEDICA, CHINESE ACADEMY OF …, priority 2020, published 2023)", "key": {"[1]": {"tested_on": "macrophage marker F4/80 in HT-29 tumor tissues", "assay": "Immunohistochemistry of macrophage marker F4/80 in HT-29 tumor tissues", "format": "in vivo, nude mice", "settings": "Compound I 5, 10, 20 mg/kg; Axitinib 40 mg/kg", "description": "At the end of the in vivo experiments, U87MG and HT-29 xenografts in nude mice were removed and fixed with […] to prepare paraffin sections. Expression of individual proteins was assessed using multiplicative quick score method (MQS). This evaluation method takes into account both the staining intensity and the staining range. […] The average intensity score of positive stained cells was 0 to 3 (0=no staining; 1=weak staining; 2=moderate staining; 3=strong staining). The total score a (minimum 0 and maximum 18) is then calculated by multiplying the range score by the intensity score."}, "[2]": {"tested_on": "solid tumors, such as brain gliomas", "assay": "Clinical trial, preliminary efficacy", "format": "in vivo", "settings": "particularly high-grade brain gliomas, data not shown"}, "[3]": {"tested_on": "M2-type macrophage marker CD206 in HT-29 tumor tissues", "assay": "Immunohistochemistry of M2-type macrophage marker CD206 in HT-29 tumor tissues", "format": "in vivo, nude mice", "settings": "Compound I 5, 10, 20 mg/kg; Axitinib 40 mg/kg", "description": "(§1) At the end of the in vivo experiments, U87MG and HT-29 xenografts in nude mice were removed and fixed with […] to prepare paraffin sections.\n(§2) Expression of individual proteins was assessed using multiplicative quick score method (MQS). This evaluation method takes into account both the staining intensity and the staining range. The method estimates the proportion of positive cells and gives a range score from 1 to 6 (1=1%-4%; 2=5%-19%; 3=20%-39%; 4=40%-59%; 5=60%-79%; 6=80%-100%). The average intensity score of positive stained cells was 0 to 3 (0=no staining; 1=weak staining; 2=moderate staining; 3=strong staining). The total score a (minimum 0 and maximum 18) is then calculated by multiplying the range score by the intensity score.\nFor detecting the changes in the macrophage marker F4/80 and M2-type macrophage marker CD206 in the HT-29 tumor tissues, quantitative analysis (solvent: n=12, blank preparation: n=6, Compound I (5 mg/kg): n=6, Compound I (10 mg/kg): n=6, Compound I (20 mg/kg): n=6, Axitinib: n=6) was performed on all sections and the experimental data were analyzed for significant differences using the t-test. * denotes p<0.05 as compared with the blank preparation group, ** denotes p<0.01 as compared with the blank preparation group, and denotes p<0.001 as compared with the blank preparation group."}, "[4]": {"tested_on": "M2-type macrophage marker CD206 in U87MG tumor tissues", "assay": "Immunohistochemistry of M2-type macrophage marker CD206 in U87MG tumor tissues", "format": "in vivo, nude mice", "description": "as §1, §2\nFor detecting the changes in the macrophage marker F4/80 and M2-type macrophage marker CD206 in the U87MG tumor tissues, quantitative analysis (solvent: n=6, blank preparation: n=6, Compound I (10 mg/kg): n=6, Compound I (20 mg/kg): n=6, Compound I (40 mg/kg): n=6, Axitinib: n=4) was performed on all sections and the experimental data were analyzed for significant differences using the t-test. * denotes p<0.05 as compared with the blank preparation group, ** denotes p<0.01 as compared with the blank preparation group, and denotes p<0.001 as compared with the blank preparation group."}, "recombinant CSF1R kinase": {"target": "recombinant CSF1R kinase (Homo sapiens (Human), UniProt P07333)", "sequence (P07333 20-972)": "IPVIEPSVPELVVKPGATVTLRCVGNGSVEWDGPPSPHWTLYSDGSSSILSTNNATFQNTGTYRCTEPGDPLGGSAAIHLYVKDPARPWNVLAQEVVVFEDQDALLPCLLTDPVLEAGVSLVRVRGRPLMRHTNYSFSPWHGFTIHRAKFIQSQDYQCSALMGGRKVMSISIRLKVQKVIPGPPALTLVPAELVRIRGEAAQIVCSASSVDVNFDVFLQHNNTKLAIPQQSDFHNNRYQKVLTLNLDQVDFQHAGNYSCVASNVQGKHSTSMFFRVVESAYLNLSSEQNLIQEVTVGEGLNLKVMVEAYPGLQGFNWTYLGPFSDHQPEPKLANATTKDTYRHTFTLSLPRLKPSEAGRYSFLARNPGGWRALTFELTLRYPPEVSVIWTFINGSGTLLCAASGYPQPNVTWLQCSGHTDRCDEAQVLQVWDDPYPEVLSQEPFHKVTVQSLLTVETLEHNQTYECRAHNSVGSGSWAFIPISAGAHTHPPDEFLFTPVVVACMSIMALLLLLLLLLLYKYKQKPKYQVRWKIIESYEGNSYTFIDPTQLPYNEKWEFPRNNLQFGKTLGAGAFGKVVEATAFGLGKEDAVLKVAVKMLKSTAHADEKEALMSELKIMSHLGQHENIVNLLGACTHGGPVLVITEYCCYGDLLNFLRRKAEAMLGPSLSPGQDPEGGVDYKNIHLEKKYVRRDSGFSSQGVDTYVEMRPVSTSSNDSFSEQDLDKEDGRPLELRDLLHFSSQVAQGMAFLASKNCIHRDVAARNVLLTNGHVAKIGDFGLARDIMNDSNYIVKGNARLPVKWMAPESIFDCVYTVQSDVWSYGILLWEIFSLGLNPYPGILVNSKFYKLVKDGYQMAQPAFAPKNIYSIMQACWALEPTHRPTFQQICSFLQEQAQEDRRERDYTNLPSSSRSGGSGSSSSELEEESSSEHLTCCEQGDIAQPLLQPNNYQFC", "assay": "CSF1R kinase activity ELISA assay", "format": "biochemical", "settings": "poly(Glu, Tyr)4:1 substrate, ATP 5 μM, read-out: IC50, inhibition of CSF1R kinase activity"}, "[5]": {"tested_on": "human glioma U87MG brain in situ transplantation", "assay": "Survival in U87MG brain in situ transplantation model in nude mice", "format": "in vivo, BALB/cA nude mice", "settings": "for ILS (%), Increase in Life Span: vs solvent group MST"}, "[6]": {"tested_on": "phosphorylated CSF1R (p-CSF1R) in BMDM", "assay": "Western blot of CSF1-stimulated CSF1R phosphorylation in BMDM", "format": "cell-based, mouse", "description": "Bone marrow-derived macrophages, after induction by CSF1 for 5 to 7 days, were centrifuged to remove the previous medium. 2 mL of a serum-free medium was added. […] CSF1 factor was added at a final concentration of 50 ng/mL for stimulation for 15 minutes. The culture medium was discarded, and cells were washed three times with pre-cooled PBS. Then, the cells were lysed by adding 1×SDS gel loading buffer. The cell lysates were heated in a boiling water bath for 15 min, and then stored at −20° C.\nA protein sample as described above was subjected to SDS-PAGE electrophoresis. Then, the protein was transferred to a nitrocellulose membrane using a semi-dry electrotransfer system. The nitrocellulose membrane was placed in a blocking solution (5% skim milk in TBS-T) and incubated for 2 h at room temperature. Then, the membrane was allowed to react with a primary antibody overnight at 4° C. After the membrane was washed with TBS-T for three times with 15 min each time, the membrane was allowed to react in a secondary antibody dilution at room temperature for 1-2 h. […]\nThe inhibitory effect of Compound I on CSF1R and its signaling pathway in mouse primary macrophages was detected by immunoblotting assays. Each experiment was independently repeated three times and all experimental results were quantified. […]"}, "[7]": {"settings": "40 mg/kg, implantation day as Day 0"}}, "note": "Values joined by “and” are separate entries in the source; they are usually repeats but may differ in a detail not shown here. Equal entries are not always repeated."}
{"compound": "Cc1cc(NC(=O)c2cccc3cc(-c4cccc5[nH]nc(N)c45)ccc23)ccc1F", "note": "[Compound I]", "values": [{"measurement": "expression of F4/80, HT-29 tumor tissue", "setting": "[1]", "result": "inhibited the expression of F4/80 and CD206 in a dose-dependent manner"}, {"measurement": "preliminary efficacy in clinical trial", "setting": "[2]", "result": "good therapeutic efficacy"}, {"measurement": "expression of CD206, HT-29 tumor tissue", "setting": "[3]", "result": "inhibited the expression of F4/80 and CD206 in a dose-dependent manner"}, {"measurement": "inhibition rate of CD206 expression, U87MG tumor tissue", "setting": "[4]; 10 mg/kg dose group", "result": 34.48, "unit": "%"}, {"measurement": "inhibition rate of CD206 expression, U87MG tumor tissue", "setting": "[4]; 40 mg/kg dose group", "result": 70.69, "unit": "%"}, {"measurement": "IC50", "setting": "recombinant CSF1R kinase", "result": "19.3 ± 3.4", "unit": "nM"}, {"measurement": "Median survival time, MST", "setting": "[5]; 20 mg/kg po twice a day from Day 8", "result": "54 days and 54.0 days"}, {"measurement": "ILS (%), Increase in Life Span", "setting": "[5]; 20 mg/kg", "result": 17.39, "unit": "%"}, {"measurement": "Median survival time, MST", "setting": "[5]; 40 mg/kg po twice a day from Day 8", "result": 58.5, "unit": "days"}, {"measurement": "day of first death in the group", "setting": "[5]; [7]", "result": 43, "unit": "days"}, {"measurement": "day of last death in the group", "setting": "[5]; [7]", "result": 75, "unit": "days"}, {"measurement": "ILS (%), Increase in Life Span", "setting": "[5]; 40 mg/kg", "result": 27.17, "unit": "%"}, {"measurement": "inhibition at 0.1 µM", "setting": "[6]; Mus musculus, 100 nM, 2 h, CSF1 50 ng/mL 15 min", "result": 57.3, "unit": "%"}, {"measurement": "CSF1 stimulated phosphorylation levels of CSF1R and AKT", "setting": "[6]; immunoblotting", "result": "inhibited in a dose-dependent manner"}]}
